Data as given in patent publication US20060134197A1, “Method of reducing unpleasant taste and/or unpleasant odor” (priority 2002, published 2006).

Experiments:
[1] = Panel test of lowering iron taste and/or smell of aqueous bivalent iron ion solution; set-up: key to Effect on lowering iron taste and/or smell: “Not effective (symbol “−”)” meaning of that the test aqueous solution showed no difference in iron taste and/or smell from that the control aqueous solution; “Slightly effective (symbol “+”)”, the test aqueous solution showes weaker iron taste and/or smell than the control aqueous solution but the deference was not significant; “Effective (symbol “++”)”, the test aqueous solution showed a slight iron taste and/or smell but it was significantly weaker than that of the control aqueous solution; “Strongly effective (symbol “+++”)”, the test aqueous solution showed almost no iron taste and/or smell; conditions: for Effect on lowering iron taste and/or smell: 5 mg bivalent iron per 100 ml, 12 panels
Protocol: To confirm the effect of various saccharides on inhibiting taste and/or smell of bivalent iron ion, the following experiment was carried out. An aqueous solution containing bivalent iron ion was prepared by dissolving 0.05556 part by weight of ammonium ferric citrate (iron content of about 18%), and 0.1 part by weight of ascorbic acid in 100 parts by weight of deionized water. Test aqueous solutions containing 5 mg of bivalent iron per 100 ml of water and 0.5, 1.0, 1.5, 2.0 or 5.0% of saccharide selected from sucrose, maltose (hydrous crystalline maltose commercialized by Hayashibara Biochemical Laboratories, Inc., Okayama, Japan, purify 99.0% or more), α,α-trehalose (hydrous crystalline α,α-trehalose commercialized by Hayashibara Biochemical Laboratories, Inc., Okayama, Japan, purity 99.0% or more), α-glucosyl α,α-trehalose (hydrous crystalline α-glucosyl α,α-trehalose prepared in Experiment B-1 of Japanese Patent Publication (Kokai) No. 291,986/1995, purity 99.0% or more), and […] (powdery α-maltosyl α,α-trehalose prepared in Example 5 described following, purity 98.1%) were prepared by admixing the above aqueous solution containing bivalent iron with an equal volume of a pre-prepared aqueous solution containing any one of the above saccharides at a concentration of 1.0, 2.0, 3.0, 4.0 or 10.0%, on a dry solid basis. As a control, an aqueous solution was prepared by admixing the aqueous solution containing bivalent iron ion with an equal volume of warter instead of the aqueous saccharide solution.
The effect on lowering iron taste and/or smell, namely unpleasant taste and/or smell of iron ion existing in a test aqueous solution at a concentration of 5 mg per 100 ml was judged by a panel test using 12 panels. […] In the judgement for each test aqueous solution, ten or more of 12 panels answered the same judgement.

[2] = Inhibiting the production of hydrogen sulfide from L-cysteine due to heat-decomposition; conditions: 2.5 g L-cysteine hydrochloride and 5 g saccharide in 50 ml; 80° C. for 15 minutes; 100 minus relative value, control defined as 100
Description: Two and half grams of precisely weighted L-cysteine hydrochloride (special reagent grade) and on a dry solid basis 5 g of a precisely measured saccharide sample; i.e. hydrous crystalline α,α-trehalose (reagent grade, purity 99.0% or more, commercialized by Hayashibara Biochemical Laboratories, Inc., Okayama, Japan), α-maltosyl α,α-trehalose prepared in the following Example 5 (purity 98.1%), or a reagent grade maltotetraose (purity 97.0% or more, commercialized by Hayashibara Biochemical Laboratories, Inc., Okayama, Japan); were placed in a 50-ml volume measuring flask and dissolved in deionized water to give a final volume of 50 ml. As a control, 2.5 g of precisely measured L-cysteine hydrochloride (special reagent grade) was dissolved in deionized water to give a final volume of 50 ml. Five ml of each sample was place into a 20-ml volume vial, sealed with a butyl gum cap, and kept at 80° C. for 15 minutes in an incubator. Hydrogen sulfide contained in 10 ml of the resulting headspace gas was measured by “GASTECH No. 4 LT”, a hydrogen sulfide detector commercialized by GL Science Corporation, under an aspiration time of one minute. The resulting value of the production of hydrogen sulfide of each test sample was compared with the value of control defined as 100 to calculate the relative value of the production of hydrogen sulfide. And then, the relative rate of inhibiting the production of hydrogen sulfide was calculated by 100 minus the relative value.

[3] = Water solubility and hygroscopicity of the agents; assay type: physicochemical

Row | Hygroscopicity [3] | Solubility in water [3] | Structure (SMILES) | Effect on lowering iron taste and/or smell ([1]; saccharide 0.5%) | Effect on lowering iron taste and/or smell ([1]; saccharide 1.0%) | Effect on lowering iron taste and/or smell ([1]; saccharide 1.5%) | Effect on lowering iron taste and/or smell ([1]; saccharide 2.0%) | Effect on lowering iron taste and/or smell ([1]; saccharide 5.0%) | Concentration effective on lowering unpleasant taste and/or smell of aqueous iron ion solution ([1]; to the total weight of the aqueous solution, dry solid basis) [%] | Relative rate of inhibiting the production of hydrogen sulfide [2]
1 |  |  | OC[C@H]1O[C@H](O[C@H]2[C@H](O)[C@@H](O)C(O)O[C@@H]2CO)[C@H](O)[C@@H](O)[C@@H]1O (mixture of isomers) [Maltose, maltose] | − | − | − | + | + | ≥ 2 | 
2 |  |  | OC[C@H]1O[C@H](O[C@H]2[C@H](O)[C@@H](O)[C@@H](O[C@H]3[C@H](O)[C@@H](O)[C@@H](O[C@H]4[C@H](O)[C@@H](O)C(O)O[C@@H]4CO)O[C@@H]3CO)O[C@@H]2CO)[C@H](O)[C@@H](O)[C@@H]1O (some centres unmarked) [Maltotetraose, maltotetraose] |  |  |  |  |  |  | 12
3 |  |  | OC[C@H]1O[C@H](O[C@H]2O[C@H](CO)[C@@H](O[C@H]3O[C@H](CO)[C@@H](O)[C@H](O)[C@H]3O)[C@H](O)[C@H]2O)[C@H](O)[C@@H](O)[C@@H]1O [α-Glucosyl α,α-trehalose, α-glucosyl α,α-trehalose] | − | + | ++ | ++ | +++ |  | 
4 | low hygroscopicity | satisfactory solubility in water | OC[C@H]1O[C@H](O[C@H]2O[C@H](CO)[C@@H](O[C@H]3O[C@H](CO)[C@@H](O[C@H]4O[C@H](CO)[C@@H](O)[C@H](O)[C@H]4O)[C@H](O)[C@H]3O)[C@H](O)[C@H]2O)[C@H](O)[C@@H](O)[C@@H]1O [α-Maltosyl α,α-trehalose, α-maltosyl α,α-trehalose] | − | + | ++ | ++ | +++ |  | 36
